Measurements as given in ChEMBL document CHEMBL1201862, “PubChem BioAssay data set” (2004).
Active and inactive are the calls of the source.

Tests used:
[1] = biological target: T1, Long-chain-fatty-acid--AMP ligase FadD28 (Mycobacterium tuberculosis, UniProt P9WQ59); assay: Fluorescence polarization aasay to screen for inhibitors that compete for the binding of FadD28 to a bisubstrate Measured in Biochemical System Using Plate Reader - 2147-01_Inhibitor_Dose_CherryPick_Activity.; format: functional, Mycobacterium tuberculosis H37Rv
T1 sequence (P9WQ59 whole entry): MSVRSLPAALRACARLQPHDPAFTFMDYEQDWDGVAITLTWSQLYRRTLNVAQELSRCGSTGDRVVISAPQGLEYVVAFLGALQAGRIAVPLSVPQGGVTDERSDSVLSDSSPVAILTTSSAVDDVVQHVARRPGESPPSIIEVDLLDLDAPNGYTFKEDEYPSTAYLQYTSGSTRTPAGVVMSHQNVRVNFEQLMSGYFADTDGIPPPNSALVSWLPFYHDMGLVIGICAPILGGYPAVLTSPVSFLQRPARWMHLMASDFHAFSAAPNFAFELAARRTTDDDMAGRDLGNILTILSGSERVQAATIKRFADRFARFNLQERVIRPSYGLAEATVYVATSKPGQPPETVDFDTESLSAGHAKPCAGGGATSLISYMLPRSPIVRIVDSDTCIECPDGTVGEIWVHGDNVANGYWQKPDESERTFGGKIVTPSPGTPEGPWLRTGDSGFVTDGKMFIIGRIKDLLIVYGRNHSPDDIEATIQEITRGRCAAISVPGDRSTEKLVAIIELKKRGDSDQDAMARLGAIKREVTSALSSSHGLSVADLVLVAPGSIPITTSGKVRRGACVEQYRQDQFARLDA

Vero = Vero cell cytotoxicity, cytotoxicity control for flavivirus capping enzyme inhibitors (AID 588742); format: functional; details: Chlorocebus sabaeus
Genome polyprotein = Genome polyprotein (dengue virus type 2, UniProt P29990); assay: Dengue-2 NS5 methyltransferase inhibitors, primary screen, biochemical, confirmation dose response (AID 588689); format: functional
BJ [2] = assay: cytotoxicity toward BJ-TERT fibroblasts, dose response, cell-based, RAS-independent, luminescence (AID 1933); format: functional; details: Homo sapiens
BJ [3] = assay: cells; format: functional, cell-based; details: Homo sapiens, read-out: EC50
BJ [4] = assay: cytotoxicity toward Ras-transformed BJeLR fibroblasts, dose response, cell-based, alamar blue fluorescence, cherrypicked samples (AID 2631); format: functional; details: Homo sapiens;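 note: confirmatory dose-response assay in RAS-dependent BJ fibroblasts engineered with TERT, LT and ST, with cytotoxicity read by fluorescence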
[5] = cytotoxicity toward DRD oncogenic fibroblasts, dose response, cell-based, non-viral oncogenic, luminescence (AID 1934); format: functional; details: Homo sapiens
BJ [6] = assay: cytotoxicity toward BJ-TERT-LT-ST fibroblasts, dose response, cell-based, RAS-independent, luminescence (AID 1935); format: functional; details: Homo sapiens;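 note: BJ fibroblasts immortalized with TERT plus LT and ST oncogenes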
Beta-galactosidase = Beta-galactosidase (Escherichia coli, UniProt Q8VNN2); assay: PubChem AID 485352; format: functional
[7] = biological target: T2, Type-1 angiotensin II receptor (Homo sapiens, UniProt P30556); assay: AT1 receptor antagonists, dose response, selectivity assay for APJ receptor antagonist project, cell-based, uHTS hits (AID 463214); format: functional;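 note: antagonist potency against angiotensin II stimulated AT1 response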
T2 sequence (P30556 whole entry): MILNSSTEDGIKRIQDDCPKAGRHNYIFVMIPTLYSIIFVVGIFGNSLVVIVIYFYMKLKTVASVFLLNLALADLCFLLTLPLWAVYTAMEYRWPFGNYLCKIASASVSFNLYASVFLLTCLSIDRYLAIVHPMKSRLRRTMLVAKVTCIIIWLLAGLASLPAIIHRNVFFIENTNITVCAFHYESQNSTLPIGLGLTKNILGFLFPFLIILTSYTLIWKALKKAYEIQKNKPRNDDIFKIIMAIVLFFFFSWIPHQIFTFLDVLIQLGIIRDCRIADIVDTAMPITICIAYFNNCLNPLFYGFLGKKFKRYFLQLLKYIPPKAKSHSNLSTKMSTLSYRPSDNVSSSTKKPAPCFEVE

Protein skinhead-1 = biological target: T3, Protein skinhead-1 (Caenorhabditis elegans, UniProt P34707); format: functional
T3 sequence (P34707 whole entry): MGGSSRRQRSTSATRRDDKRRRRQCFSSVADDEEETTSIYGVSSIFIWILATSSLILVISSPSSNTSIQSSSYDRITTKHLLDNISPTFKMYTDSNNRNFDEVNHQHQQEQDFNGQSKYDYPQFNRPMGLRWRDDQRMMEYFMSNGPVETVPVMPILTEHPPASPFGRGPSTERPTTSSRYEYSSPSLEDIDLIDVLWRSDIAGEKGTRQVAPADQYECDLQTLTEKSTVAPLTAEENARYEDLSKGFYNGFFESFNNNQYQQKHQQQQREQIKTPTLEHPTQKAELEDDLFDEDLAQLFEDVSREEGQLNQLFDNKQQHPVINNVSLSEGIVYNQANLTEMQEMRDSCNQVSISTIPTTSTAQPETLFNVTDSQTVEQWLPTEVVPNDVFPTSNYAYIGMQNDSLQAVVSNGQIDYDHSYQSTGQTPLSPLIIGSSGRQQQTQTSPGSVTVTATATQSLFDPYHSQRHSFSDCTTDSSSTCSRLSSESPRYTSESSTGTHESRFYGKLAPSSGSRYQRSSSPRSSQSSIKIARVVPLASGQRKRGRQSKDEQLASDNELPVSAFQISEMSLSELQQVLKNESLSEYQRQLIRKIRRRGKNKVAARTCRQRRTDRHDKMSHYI

[8] = biological target: T4, Sentrin-specific protease 8 (Homo sapiens, UniProt Q96LD8); assay: SENP8 protease inhibitors, SAR follow-up, biochemical, luminescence, set 2 (AID 588601); format: functional
T4 sequence (Q96LD8 whole entry): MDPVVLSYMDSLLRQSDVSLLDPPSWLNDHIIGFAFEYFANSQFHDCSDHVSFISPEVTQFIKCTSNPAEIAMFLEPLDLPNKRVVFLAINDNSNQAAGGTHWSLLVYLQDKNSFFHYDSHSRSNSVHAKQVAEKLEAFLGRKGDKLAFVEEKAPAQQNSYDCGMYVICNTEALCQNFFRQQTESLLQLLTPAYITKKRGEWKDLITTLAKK

[9] = biological target: T4, Sentrin-specific protease 8; assay: SENP8 protease inhibitors, SAR follow-up, biochemical, luminescence (AID 504501); format: functional
[10] = biological target: T5, Sentrin-specific protease 7 (Homo sapiens, UniProt Q9BQF6); assay: SENP7 protease inhibitors, SAR follow-up, biochemical, luminescence, set 2 (AID 588600); format: functional
T5 sequence (Q9BQF6 whole entry): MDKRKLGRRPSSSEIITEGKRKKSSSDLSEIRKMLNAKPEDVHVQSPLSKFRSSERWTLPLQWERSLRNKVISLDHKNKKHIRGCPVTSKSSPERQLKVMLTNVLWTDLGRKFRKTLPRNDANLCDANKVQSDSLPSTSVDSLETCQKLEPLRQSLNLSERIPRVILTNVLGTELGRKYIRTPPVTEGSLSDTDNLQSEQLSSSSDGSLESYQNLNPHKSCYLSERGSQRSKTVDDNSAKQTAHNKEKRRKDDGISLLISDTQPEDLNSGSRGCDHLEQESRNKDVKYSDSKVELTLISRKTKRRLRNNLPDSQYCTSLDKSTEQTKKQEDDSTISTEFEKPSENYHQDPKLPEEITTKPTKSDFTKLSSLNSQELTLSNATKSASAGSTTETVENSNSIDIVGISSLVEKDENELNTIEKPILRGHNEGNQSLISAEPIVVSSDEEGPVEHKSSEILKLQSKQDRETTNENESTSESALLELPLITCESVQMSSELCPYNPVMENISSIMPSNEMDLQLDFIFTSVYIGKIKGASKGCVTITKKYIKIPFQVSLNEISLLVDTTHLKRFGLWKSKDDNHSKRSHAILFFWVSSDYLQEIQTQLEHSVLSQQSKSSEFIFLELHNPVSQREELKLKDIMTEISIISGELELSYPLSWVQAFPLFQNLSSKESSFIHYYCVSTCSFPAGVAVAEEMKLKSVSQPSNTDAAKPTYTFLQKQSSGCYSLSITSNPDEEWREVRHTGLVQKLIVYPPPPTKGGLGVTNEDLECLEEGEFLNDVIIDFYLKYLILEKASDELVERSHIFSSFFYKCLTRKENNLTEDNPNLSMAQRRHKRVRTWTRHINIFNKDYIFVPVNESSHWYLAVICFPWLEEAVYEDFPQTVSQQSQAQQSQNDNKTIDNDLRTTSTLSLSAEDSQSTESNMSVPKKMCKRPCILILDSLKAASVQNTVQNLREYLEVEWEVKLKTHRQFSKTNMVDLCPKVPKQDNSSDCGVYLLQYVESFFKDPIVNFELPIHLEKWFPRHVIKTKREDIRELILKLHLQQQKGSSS

[11] = biological target: T6, Sentrin-specific protease 6 (Homo sapiens, UniProt Q9GZR1); assay: SAR Analysis of small molecule inhibitors of Sentrin-specific protease 6 (SENP6) using a Luminescent assay. [Related pubchem assays (depositor defined):AID2582, AID2599]; format: functional
T6 sequence (Q9GZR1 whole entry): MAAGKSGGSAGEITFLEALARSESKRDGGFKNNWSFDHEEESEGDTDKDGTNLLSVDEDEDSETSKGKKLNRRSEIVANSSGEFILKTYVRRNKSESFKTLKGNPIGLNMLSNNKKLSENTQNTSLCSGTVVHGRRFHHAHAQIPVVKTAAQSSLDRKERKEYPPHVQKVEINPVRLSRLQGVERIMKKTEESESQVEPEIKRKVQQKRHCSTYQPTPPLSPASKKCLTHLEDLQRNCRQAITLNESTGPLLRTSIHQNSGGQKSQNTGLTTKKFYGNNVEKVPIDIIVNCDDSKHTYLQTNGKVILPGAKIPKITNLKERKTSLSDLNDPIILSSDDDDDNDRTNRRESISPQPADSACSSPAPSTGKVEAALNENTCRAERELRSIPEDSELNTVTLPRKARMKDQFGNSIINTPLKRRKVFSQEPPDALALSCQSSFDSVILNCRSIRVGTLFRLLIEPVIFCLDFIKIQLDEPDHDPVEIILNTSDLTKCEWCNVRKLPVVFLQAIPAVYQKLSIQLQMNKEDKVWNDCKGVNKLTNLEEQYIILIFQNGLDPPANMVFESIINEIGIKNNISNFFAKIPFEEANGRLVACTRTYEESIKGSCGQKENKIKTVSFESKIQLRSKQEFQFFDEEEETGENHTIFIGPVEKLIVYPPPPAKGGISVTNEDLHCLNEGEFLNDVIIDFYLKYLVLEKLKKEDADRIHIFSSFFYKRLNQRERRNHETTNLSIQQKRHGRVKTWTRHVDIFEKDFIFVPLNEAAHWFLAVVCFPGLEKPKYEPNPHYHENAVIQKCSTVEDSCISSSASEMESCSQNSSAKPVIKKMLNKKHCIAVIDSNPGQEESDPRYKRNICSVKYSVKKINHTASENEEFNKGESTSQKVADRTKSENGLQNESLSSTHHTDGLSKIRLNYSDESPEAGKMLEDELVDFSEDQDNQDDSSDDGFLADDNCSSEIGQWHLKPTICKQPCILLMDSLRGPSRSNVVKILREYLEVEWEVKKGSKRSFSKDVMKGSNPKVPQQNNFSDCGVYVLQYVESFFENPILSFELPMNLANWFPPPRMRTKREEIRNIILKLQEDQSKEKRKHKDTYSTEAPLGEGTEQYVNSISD

Caspase-3 = biological target: T7, Caspase-3 (Homo sapiens, UniProt P42574); assay: SAR Analysis of small molecule inhibitors of Sentrin-specific proteases (SENPs) using a Caspase-3 Selectivity assay. [Related pubchem assays (depositor defined):AID2540, AID2599, AID434973, AID489001]; format: functional
T7 sequence (P42574 whole entry): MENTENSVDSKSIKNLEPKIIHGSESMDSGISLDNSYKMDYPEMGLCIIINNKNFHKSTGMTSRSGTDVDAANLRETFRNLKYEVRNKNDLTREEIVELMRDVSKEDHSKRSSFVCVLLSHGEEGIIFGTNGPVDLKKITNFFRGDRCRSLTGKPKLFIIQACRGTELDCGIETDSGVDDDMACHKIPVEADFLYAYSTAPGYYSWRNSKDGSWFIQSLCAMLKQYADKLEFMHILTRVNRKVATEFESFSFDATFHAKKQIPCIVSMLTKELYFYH

[12] = biological target: T6, Sentrin-specific protease 6; assay: SENP6 protease inhibitors, SAR follow-up, biochemical, luminescence, set 2 (AID 588598); format: functional
[13] = biological target: T5, Sentrin-specific protease 7; assay: SENP7 protease inhibitors, SAR follow-up, biochemical, luminescence (AID 504497); format: functional
H4 [14] = assay: inhibitors of control reporter signal in H4 cells – cell-based, plate reader, dry powder samples, counter-screen for prion reporter project, dose response (AID 540255); format: functional; details: Homo sapiens
[15] = biological target: Luciferin 4-monooxygenase (Photinus pyralis, UniProt P08659); assay: firefly luciferase enzyme inhibitors, dose response, biochemical, dry powder samples, plate reader (AID 588451)
H4 [16] = assay: Inhibitors of Prion Protein 5' UTR mRNA Measured in Cell-Based System Using Plate Reader - 2078-01_Inhibitor_Dose_DryPowder_Activity. [Related pubchem assays (depositor defined):AID488894]; format: functional; details: Homo sapiens
[17] = cytotoxicity in HEK-293T cells, dose response, cytotoxicity control for BCR NF-kB inhibitor project, luminescence, B-cell screen hits (AID 489021); format: functional, cell-based;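 note: HEK-293T cells carrying an NF-kB luciferase reporter; cells exposed to compound for about 14 hours before viability readout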
H4 [18] = assay: Amyloid Precursor 5' UTR neuroblastoma cell reporter line Measured in Cell-Based System Using Plate Reader - 2078-04_Inhibitor_Dose_DryPowder_Activity. [Related pubchem assays (depositor defined):AID488894]; format: functional; details: Homo sapiens

Sequence of Genome polyprotein (P29990 2492-3391 limits assumed): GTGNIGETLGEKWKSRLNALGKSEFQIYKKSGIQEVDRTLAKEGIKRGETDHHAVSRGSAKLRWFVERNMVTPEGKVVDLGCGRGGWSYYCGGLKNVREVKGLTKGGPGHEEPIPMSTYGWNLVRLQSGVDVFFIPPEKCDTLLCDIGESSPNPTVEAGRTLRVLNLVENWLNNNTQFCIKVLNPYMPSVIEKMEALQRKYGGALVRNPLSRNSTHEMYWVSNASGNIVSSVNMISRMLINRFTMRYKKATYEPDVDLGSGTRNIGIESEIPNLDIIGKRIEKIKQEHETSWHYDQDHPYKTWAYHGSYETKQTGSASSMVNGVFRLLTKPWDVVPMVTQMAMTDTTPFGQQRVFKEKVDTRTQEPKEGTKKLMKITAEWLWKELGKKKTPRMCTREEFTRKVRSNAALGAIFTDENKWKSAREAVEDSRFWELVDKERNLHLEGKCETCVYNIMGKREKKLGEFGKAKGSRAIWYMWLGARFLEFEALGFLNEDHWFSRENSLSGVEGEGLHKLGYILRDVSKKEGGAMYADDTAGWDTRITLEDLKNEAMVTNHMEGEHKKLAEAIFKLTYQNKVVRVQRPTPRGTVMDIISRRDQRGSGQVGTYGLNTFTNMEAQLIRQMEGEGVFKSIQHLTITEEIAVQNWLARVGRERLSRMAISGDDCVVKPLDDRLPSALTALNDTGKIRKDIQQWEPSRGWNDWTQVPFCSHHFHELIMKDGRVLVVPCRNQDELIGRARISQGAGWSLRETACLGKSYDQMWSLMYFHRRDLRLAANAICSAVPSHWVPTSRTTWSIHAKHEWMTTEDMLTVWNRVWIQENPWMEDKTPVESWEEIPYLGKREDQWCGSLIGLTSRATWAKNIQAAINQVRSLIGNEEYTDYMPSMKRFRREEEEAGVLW
Sequence of Beta-galactosidase (Q8VNN2 whole entry): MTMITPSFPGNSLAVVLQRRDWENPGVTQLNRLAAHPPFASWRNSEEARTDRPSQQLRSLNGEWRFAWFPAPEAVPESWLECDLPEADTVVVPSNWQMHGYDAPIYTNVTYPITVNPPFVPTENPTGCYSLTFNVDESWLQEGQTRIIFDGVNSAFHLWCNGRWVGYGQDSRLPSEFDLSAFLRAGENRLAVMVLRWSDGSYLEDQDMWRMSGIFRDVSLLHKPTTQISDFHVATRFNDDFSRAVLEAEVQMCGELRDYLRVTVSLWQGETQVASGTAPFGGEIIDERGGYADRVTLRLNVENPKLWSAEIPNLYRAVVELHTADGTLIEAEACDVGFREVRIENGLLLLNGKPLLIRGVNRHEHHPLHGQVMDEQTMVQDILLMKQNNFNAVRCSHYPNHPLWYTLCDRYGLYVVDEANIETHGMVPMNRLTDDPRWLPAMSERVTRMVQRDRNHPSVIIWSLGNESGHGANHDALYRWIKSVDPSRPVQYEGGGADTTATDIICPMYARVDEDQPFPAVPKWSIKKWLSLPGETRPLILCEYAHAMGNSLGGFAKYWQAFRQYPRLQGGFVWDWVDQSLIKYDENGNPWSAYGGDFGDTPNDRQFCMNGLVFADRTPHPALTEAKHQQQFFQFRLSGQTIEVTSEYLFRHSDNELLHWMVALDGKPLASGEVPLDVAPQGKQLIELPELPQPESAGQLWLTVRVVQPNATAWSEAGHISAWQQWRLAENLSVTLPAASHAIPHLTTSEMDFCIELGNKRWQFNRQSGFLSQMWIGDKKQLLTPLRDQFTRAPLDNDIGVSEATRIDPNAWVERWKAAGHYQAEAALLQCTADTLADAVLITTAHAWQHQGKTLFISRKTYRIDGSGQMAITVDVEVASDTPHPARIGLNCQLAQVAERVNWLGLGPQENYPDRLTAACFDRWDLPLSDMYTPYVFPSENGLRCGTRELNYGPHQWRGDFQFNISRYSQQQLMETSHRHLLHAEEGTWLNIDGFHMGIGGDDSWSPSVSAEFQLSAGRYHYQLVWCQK
Sequence of Luciferin 4-monooxygenase (P08659 whole entry): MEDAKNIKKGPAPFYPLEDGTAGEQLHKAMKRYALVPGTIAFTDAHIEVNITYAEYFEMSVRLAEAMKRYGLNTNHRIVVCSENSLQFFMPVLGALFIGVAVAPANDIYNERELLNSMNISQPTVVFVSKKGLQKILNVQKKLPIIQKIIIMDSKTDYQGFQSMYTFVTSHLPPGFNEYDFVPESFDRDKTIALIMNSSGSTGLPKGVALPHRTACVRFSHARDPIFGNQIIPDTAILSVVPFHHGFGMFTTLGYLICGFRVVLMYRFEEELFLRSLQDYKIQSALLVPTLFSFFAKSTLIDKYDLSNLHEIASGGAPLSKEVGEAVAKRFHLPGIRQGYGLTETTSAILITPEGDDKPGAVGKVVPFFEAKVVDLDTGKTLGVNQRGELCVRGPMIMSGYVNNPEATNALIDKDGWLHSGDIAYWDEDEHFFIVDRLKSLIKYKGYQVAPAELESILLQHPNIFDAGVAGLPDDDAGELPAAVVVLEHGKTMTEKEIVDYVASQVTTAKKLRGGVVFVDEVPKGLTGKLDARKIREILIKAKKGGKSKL

O=C(Nc1sc2c(c1C(=O)O)CCCC2)c1cccc(Cl)c1
AC50 [1]: > 100 µM (inactive)
CC50 (Vero): > 40 µM (active)
IC50 (Genome polyprotein): 71.8 µM (active)

Cc1ccc(/C=C2\SC(=S)N(CC3CCCO3)C2=O)o1 (stereo not drawn)
EC50 (BJ [2]): 35.8 µM (inconclusive)
EC50 (BJ [3]): > 150 µM (not active)
EC50 (BJ [4]): > 133 µM (inactive)
EC50 [5]: 16.4 µM (active)
EC50 (BJ [6]): > 150 µM (not active)

O=C(CNc1ccc(Br)cc1)c1ccccc1
EC50 (Beta-galactosidase): > 40 µM (inactive)
IC50 [7]: 13.5 µM (active)
IC50 (Protein skinhead-1): > 100 µM (inactive)

Fc1ccc(/C=C/c2noc(-c3ccccc3I)n2)cc1
IC50 [8]: 7.41 µM (active)
IC50 [9]: 23 µM (active)
IC50 [10]: 7.78 µM (active)
IC50 [11]: 20 µM (active)
IC50 (Caspase-3): 24 µM (active)
IC50 [12]: 7.33 µM (active)
IC50 [13]: 6.4 µM (active)

Cc1ccc(NC(=O)O/N=C/c2c(C)nn(C(C)(C)C)c2C)cc1Cl
AC50 (H4 [14]): 0.237 µM (active)
AC50 [15]: 14.8 µM (active)
AC50 (H4 [16]): 0.099 µM (active)
IC50 [17]: > 80 µM (inactive)
AC50 (H4 [18]): 0.125 µM (active)
